For twelve molecules, selectivity ratio, Ki and inhibition results are on record in ChEMBL document CHEMBL1159086, “Design, synthesis and SAR analysis of novel selective sigma1 ligands (Part 2)” (Bioorg Med Chem, 2010).

Assay [1] in a line: Selectivity for rat liver sigma 1 opioid receptor over rat liver sigma 2 opioid receptor.
Assay [2] can be described thus: Displacement of [3H]ditolylguanidine from sigma 2 opioid receptor in rat liver homogenate. The class given is tissue-based.
Assay [3] has as its target Sigma non-opioid intracellular receptor 1 (Rattus norvegicus, UniProt Q9R0C9). Put plainly: Displacement of [3H](+)-pentazocine from sigma 1 opioid receptor in rat liver homogenate. The class given is tissue-based. (In a radioligand displacement assay an active substance lowers the binding of a labelled ligand.)
Assay [4] deals with Delta-type opioid receptor (Rattus norvegicus) (UniProt P33533). Put plainly: Displacement of [3H]DPDPE from delta opioid receptor in rat brain homogenate at 1 uM. The class given is tissue-based.
Delta-type opioid receptor (Rattus norvegicus), sequence (P33533 whole entry): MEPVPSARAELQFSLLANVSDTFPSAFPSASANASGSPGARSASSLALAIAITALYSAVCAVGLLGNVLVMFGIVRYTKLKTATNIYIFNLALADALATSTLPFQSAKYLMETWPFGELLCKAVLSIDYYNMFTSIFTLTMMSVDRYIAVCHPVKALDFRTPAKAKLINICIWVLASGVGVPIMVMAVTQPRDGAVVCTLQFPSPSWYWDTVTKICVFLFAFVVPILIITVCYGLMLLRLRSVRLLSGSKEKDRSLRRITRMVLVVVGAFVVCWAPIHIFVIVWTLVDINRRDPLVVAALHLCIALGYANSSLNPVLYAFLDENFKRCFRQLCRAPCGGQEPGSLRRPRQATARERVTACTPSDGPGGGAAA
Assay [5] addresses Kappa-type opioid receptor (Cavia porcellus) (UniProt P41144). Put plainly: Displacement of [3H]-U-69593 from kappa-type opioid receptor in guinea pig brain homogenate at 1 uM. It counts as tissue-based.
Assay [6] concerns the target Mu-type opioid receptor (Cavia porcellus, UniProt P97266). Put plainly: Displacement of [3H]DAMGO from mu-type opioid receptor in guinea pig brain homogenate. The class given is tissue-based.
Assay [7] concerns the target Delta-type opioid receptor (Rattus norvegicus, UniProt P33533). The assay can be described thus: Displacement of [3H]DPDPE from delta opioid receptor in rat brain homogenate. The class given is tissue-based.
Assay [8] deals with Mu-type opioid receptor (Cavia porcellus) (UniProt P97266). The assay can be described thus: Displacement of [3H]DAMGO from mu-type opioid receptor in guinea pig brain homogenate at 1 uM. It counts as tissue-based.
Mu-type opioid receptor (Cavia porcellus), sequence (P97266 whole entry): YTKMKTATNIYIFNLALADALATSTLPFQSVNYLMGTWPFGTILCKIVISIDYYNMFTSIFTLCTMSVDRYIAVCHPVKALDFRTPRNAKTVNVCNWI
For assay [9], the target named is Kappa-type opioid receptor (Cavia porcellus, UniProt P41144). Put plainly: Displacement of [3H]-U-69593 from kappa-type opioid receptor in guinea pig brain homogenate. The class given is tissue-based.
Kappa-type opioid receptor, sequence (P41144 whole entry): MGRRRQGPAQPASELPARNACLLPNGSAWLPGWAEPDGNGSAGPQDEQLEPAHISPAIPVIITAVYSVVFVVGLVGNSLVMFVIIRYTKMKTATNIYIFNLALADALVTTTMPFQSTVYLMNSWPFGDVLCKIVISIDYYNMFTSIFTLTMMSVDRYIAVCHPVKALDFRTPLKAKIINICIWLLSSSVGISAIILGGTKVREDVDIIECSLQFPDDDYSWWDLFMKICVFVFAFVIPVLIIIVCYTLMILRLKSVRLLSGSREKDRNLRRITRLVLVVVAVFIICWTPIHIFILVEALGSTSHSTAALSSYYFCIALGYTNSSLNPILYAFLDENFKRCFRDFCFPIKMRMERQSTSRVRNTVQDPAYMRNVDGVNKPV

Sigma non-opioid intracellular receptor 1, sequence (Q9R0C9 whole entry): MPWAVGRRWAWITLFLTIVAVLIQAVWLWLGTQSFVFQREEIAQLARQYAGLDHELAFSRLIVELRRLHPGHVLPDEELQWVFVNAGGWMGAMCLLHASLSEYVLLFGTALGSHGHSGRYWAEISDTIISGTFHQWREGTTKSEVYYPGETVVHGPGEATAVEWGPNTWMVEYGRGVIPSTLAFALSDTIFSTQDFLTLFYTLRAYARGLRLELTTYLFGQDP
Kappa-type opioid receptor (Cavia porcellus), sequence (P41144 whole entry): as the sequence (P41144 whole entry) above
Delta-type opioid receptor, sequence (P33533 whole entry): as the sequence (P33533 whole entry) above
Mu-type opioid receptor, sequence (P97266 whole entry): as the sequence (P97266 whole entry) above

Regarding `COc1ccc2cc(/C(C)=C/CN(C)C)ccc2c1`, in assay [1], the selectivity ratio worked out at 26. The Ki (usually a dissociation constant, usually derived from enzyme kinetics or from competition with a known ligand) was found to be 707 nM in assay [2] and 27.3 nM in [3].

Consider `C/C(=C\CN(C)Cc1ccccc1)c1ccc(-c2ccccc2)cc1`, for which, in assay [1], the selectivity ratio was determined as 74. The values for the Ki in assay [2] and in [3] were 309 nM and 4.17 nM, respectively.

Take `COc1ccc2cc(/C(C)=C/CN(C)Cc3ccccc3)ccc2c1`: the selectivity ratio in assay [1] amounted to 41. In addition, the Ki was found to be 568 nM in assay [2] and 13.7 nM in [3].

As to `COc1ccc2cc(/C(C)=C/CN3CCCCC3)ccc2c1`, in assay [1], the selectivity ratio worked out at 31. For the same molecule, the values for the Ki in assay [2] and in assay [3] were 136 nM and 4.41 nM, respectively.

Consider `COc1ccc2cc(C(C)(O)CCN3CCCCC3)ccc2c1` (stereo not drawn), for which the selectivity ratio in [1] worked out at 15. Further, the Ki in [2] came out at 154 nM; in [3], 10.4 nM.

Turning to `COc1ccc2cc(C(C)CCN(C)C)ccc2c1` (racemic), in assay [1], the selectivity ratio came out at 108. Further, the Ki in assay [2] amounted to 1550 nM; in [3] it was 14.4 nM.

On to `CC(CCN(C)Cc1ccccc1)c1ccc(-c2ccccc2)cc1` (racemic), for which the inhibition (commonly the relative decrease from the control value, in per cent) in [4] amounted to 0%; in assay [5], 15%. The selectivity ratio in assay [1] turned out to be 60. The Ki was 248 nM in [6], 214 nM in [2] and 3.59 nM in assay [3].

For `COc1ccc2cc(C(C)(O)CCN(C)Cc3ccccc3)ccc2c1` (racemic), the figures for the Ki in assay [7], in assay [2] and in assay [3] were 41 nM, 940 nM and 6.04 nM, respectively. Besides, the selectivity ratio in [1] is 156. Moreover, the inhibition in assay [5] amounted to 30%; in [8], 32%.

As for `CN(CCC(C)(O)c1ccc(-c2ccccc2)cc1)Cc1ccccc1` (racemic), the inhibition in assay [4] amounted to 31%; in [5] it was 30%; in [8] it was 45%. Also, in [1], the selectivity ratio was 90. The results for the Ki in [2] and in [3] were 215 nM and 2.38 nM, respectively.

`COc1ccc2cc(C(C)(O)CCN(C)C)ccc2c1` (racemic): the selectivity ratio in [1] was above 258. Further, the Ki in [2] is above 10000 nM; in assay [3], 38.8 nM.

On to `COc1ccc2cc(C(C)CCN(C)Cc3ccccc3)ccc2c1` (racemic), for which the Ki in [7] is 171 nM; in [9], 841 nM; in [2], 169 nM; in [3], 2.31 nM. Moreover, the selectivity ratio in assay [1] is 73. The same molecule registered an inhibition in assay [8] of 32%.

As to `COc1ccc2cc(C(C)CCN3CCCCC3)ccc2c1` (racemic), in assay [1], the selectivity ratio stood at 131. For the same molecule, the Ki in assay [2] came out at 169 nM; in assay [3], 1.29 nM.
